Results from PubChem BioAssay (NCI).
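These data come from cells grown in 96-well plates and exposed to compound for 48 hours at five concentrations. TGI denotes the concentration required for complete inhibition of growth.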

Legend:
Assay in all cases: NCI tumour cell line growth inhibition, 48 h
SN12K1 renal = tested on: SN12K1 renal
DMS 273 small cell lung = tested on: DMS 273 small cell lung
KM20L2 colon = tested on: KM20L2 colon
P388/ADR leukemia = tested on: P388/ADR leukemia
P388 leukemia = tested on: P388 leukemia
M19-MEL melanoma = tested on: M19-MEL melanoma
SNB-78 CNS = tested on: SNB-78 CNS
DMS 114 small cell lung = tested on: DMS 114 small cell lung
XF 498 CNS = tested on: XF 498 CNS

| Compound | TGI (SN12K1 renal) | TGI (DMS 273 small cell lung) | TGI (KM20L2 colon) | TGI (P388/ADR leukemia) | TGI (P388 leukemia) | TGI (M19-MEL melanoma) | TGI (SNB-78 CNS) | TGI (DMS 114 small cell lung) | TGI (XF 498 CNS) |
| --- | --- | --- | --- | --- | --- | --- | --- | --- | --- |
| COc1cccc(-c2nc3c(C(=O)NCCN(C)C)cccc3[nH]2)c1 | 30.7 µM | 39.7 µM | 39 µM | 41.9 µM | 22.2 µM | 30.3 µM | > 100 µM | 30.7 µM |  |
| CC(O)C(O)C(N)CC=O (stereo unspecified) | > 500 µM | > 500 µM | > 500 µM | > 500 µM | > 500 µM | > 500 µM | > 500 µM | > 500 µM | > 414 µM |
| COC(=O)C1=CC[C@@H]2C(C(=O)O)=CO[C@@H](OC3OC(CO)C(O)C(O)C3O)[C@H]12 (stereo partly specified) | > 300 µM | > 300 µM | > 300 µM | > 139 µM | > 300 µM | > 300 µM | > 178 µM | > 300 µM | > 300 µM |
